Source: patent publication US9925238B2, “Use of peptide for treating angiogenesis-related diseases” (MacKay Memorial Hospital, priority 2014, dated 2018)

What was measured:
[1] = test system: human umbilical vein endothelial cells (HUVECs); assay: Matrigel angiogenesis assay (tube formation) with HUVECs; assay type: cell-based; conditions: FIGS. 5 and 6; for inhibition of angiogenesis of HUVEC cells on the Matrigel: 24 hours
Method: (§1) A total of 200 μl Matrigel was added into wells of a 24-well plate and polymerized for 30 minutes at 37° C. EPC suspensions containing various concentrations of Dsg2 peptide (0.25 mg/ml, 0.5 mg/ml, or 1 mg/ml), scramble peptide (1 mg/ml) or Avastin (10 μg/ml) were plated on the Matrigel-coated wells at a density of 5×10^4 cells (EPCs, or HUVECs) in MV2 medium containing 2% FBS for 24 hours at 37° C. in a 5% CO2 humidified incubator. Each sample was tested in triplicate in the same plate, and wells were photographed with a Leica camera (×40 magnification).
(§2) Tube length in relative to the control was quantified by measuring tubes in 5 randomly chosen fields from each well with QWIN software. Experiments were repeated more than three times. The values were expressed as the means±S.D. for the three independent experiments.

C57BL/6 mice [2] = assay: Oxygen-induced retinopathy (OIR) retinal neovascularization model; assay type: in vivo, mouse; conditions: FIGS. 9 and 10; for inhibition of angiogenesis (retinal neovascularization) in the OIR model: intravitreal injection at P12, eyes at P17, compared with PBS or scramble peptide, p<0.01
Method: The neonatal mouse (C57BL/6) pups of normoxia group (serving as control) were kept in room air until postnatal day 12 (P12), while the pups of OIR group were maintained with their nursing mothers for 5 days in 75% oxygen at P7 and then returned to room air (relative hypoxia) so as to generate oxygen-induced neovascularization at P12. 1 μl of Dsg2 peptide (25 μg), scramble peptide (25 μg) and Avastin (10 μg) were intravitreally injected into mouse eyes at P12, respectively. The animals were killed, and the mouse eyes were enucleated at P17.
Mouse eye cups were fixed in 4% paraformaldehyde for 2 hours. The retina was carefully separated from eye cup, and then incubated with fluorescein-labeled isolectin-B4 (Life technologies) at 4° C. overnight. Samples were coverslipped with Vectashield medium (Vector Laboratories), and the lectin labeling was examined by use of the 20× objective of a Zeiss LSM-510 confocal microscope. Fluorescence volume measurements were recorded by creating image stacks of optical slices within lesions with QWIN software. Values for implicit volume were designated as mean total surface area.

[3] = test system: human endothelial progenitor cells (EPCs); assay: Matrigel angiogenesis assay (tube formation) with EPCs; assay type: cell-based; conditions: for inhibition of angiogenesis in EPCs: FIGS. 3 and 4
Method: as §1, §2

C57BL/6 mice [4] = assay: Matrigel plug assay; assay type: in vivo, mouse; conditions: 7 days
Method: 0.5 ml of growth factor-reduced liquid Matrigel respectively containing: (1) heparin (60 U/mL); (2) heparin (60 U/mL), VEGF (10 ng/ml), and PBS; (3) heparin (60 U/mL), VEGF (10 ng/ml), and scramble peptide (1 mg/ml); and (4) heparin (60 U/mL), VEGF (10 ng/ml), and Dsg2 peptide (1 mg/ml) were subcutaneously injecting into the skin near the abdominal midline of C57BL/6 mice. 7 days after injection, mice were euthanized, and Matrigel plugs were surgically removed and analyzed.
For macroscopic analysis of angiogenesis, hemoglobin content in Matrigel was measured with Drabkin reagent 525 (Sigma-Aldrich). Briefly, the Matrigel plug sample was re-liquefied by being place at 4° C. on ice with red cell lysis reagent for 24 hours. After brief centrifugation, 20 μl of supernatant was added to 100 μl of Drabkin solution. The mixture was allowed to stand 30 minute at room temperature, and the absorbance was measured at 540 nm. The obtained hemoglobin content was normalized to the plug weight and the value was expressed as μg hemoglobin/mg Matrigel plug.

Substance	inhibition of angiogenesis of HUVEC cells on the Matrigel [1]	inhibition of angiogenesis (retinal neovascularization) in the OIR model (C57BL/6 mice [2])	inhibition of angiogenesis (tube formation) of EPCs on Matrigel ([3]; fragments at 1.0 mg/ml, p<0.05, FIG. 2)	formation of newly formed blood vessels in Matrigel plug (C57BL/6 mice [4]; 1 mg/ml in plug with heparin and VEGF, compared with PBS or scramble peptide, FIG. 7)	hemoglobin content of Matrigel plug (C57BL/6 mice [4]; 1 mg/ml in plug, vs plug containing PBS or scramble peptide, p<0.05, FIG. 8)	efficacy in inhibiting tube formation compared with Avastin ([1]; HUVECs on Matrigel)	anti-angiogenic efficacy compared with Avastin (C57BL/6 mice [2]; OIR model, intravitreal)	inhibition of angiogenesis in EPCs ([3]; 0.5 mg/ml (200 uM))	inhibition of angiogenesis in EPCs ([3]; 1.0 mg/ml (400 uM))	reduction of tube formation ([3]; 1.0 mg/ml (400 uM), p<0.05)	relative tube length in relative to the control group ([3]; 1.0 mg/ml (400 uM), p<0.05)
Bevacizumab [Avastin, reference compound]	capable of inhibiting angiogenesis	significantly inhibited the angiogenesis	–	–	–	–	–	–	–	–	–
IVSLEPAYPP (IP10) [fragment of the predicted EC2 domain of Dsg2 peptide]	–	–	can inhibit the angiogenesis	–	–	–	–	–	–	–	–
KINATDADEPNTLNSKISYRC (extra C-terminal cysteine; Dsg2-derived peptide) [Dsg2-derived short peptide, KR20 fragment conjugated with one extra cysteine residue]	capable of inhibiting angiogenesis	significantly inhibited the angiogenesis	–	capable of inhibiting the formation of newly formed blood vessels	significantly lower	more effective than Avastin	better than that of Avastin	significantly inhibited angiogenesis	significantly inhibited angiogenesis	more than 50%	less than 50%
